Drawing on patent publication US20230118497A1, “PYRAZOLE-CONTAINING POLYCYCLIC DERIVATIVE INHIBITOR, PREPARATION METHOD THEREFOR AND APPLICATION THEREOF” (Shanghai Hansoh Biomedical Co., Ltd., priority 2019, published 2023), this text covers IC50 for 14 molecules.

The target in one test is T1, 1321N1-hP2X3 receptor (Homo sapiens, UniProt P56373).
T1 construct: host or cells: 1321N1
T1 sequence (P56373 1-397): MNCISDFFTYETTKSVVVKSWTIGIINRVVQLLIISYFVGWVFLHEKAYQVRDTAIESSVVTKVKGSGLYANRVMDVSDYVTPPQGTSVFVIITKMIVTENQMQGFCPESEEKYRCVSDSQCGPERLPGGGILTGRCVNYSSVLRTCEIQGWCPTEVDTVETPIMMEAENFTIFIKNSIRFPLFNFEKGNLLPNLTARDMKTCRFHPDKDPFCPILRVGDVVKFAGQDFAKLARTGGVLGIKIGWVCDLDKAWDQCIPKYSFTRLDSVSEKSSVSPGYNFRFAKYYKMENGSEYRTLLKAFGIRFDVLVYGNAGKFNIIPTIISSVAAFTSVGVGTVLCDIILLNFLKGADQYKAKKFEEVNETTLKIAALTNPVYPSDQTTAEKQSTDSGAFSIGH
Description: Calcium ion mobility (FLIPR) in cells stably expressing 1321N1-hP2X3 receptors. Type of test: cell-based. The conditions noted are these: calcium signal, agonist at EC80. As for the experimental part: Test Example 1. Determination of the Effect of the Compounds of the Present Invention on Calcium Ion Mobility in Cells Stably Expressing 1321N1-hP2X3 Receptors
To determine the inhibitory activity of the compounds on 1321N1-hP2X3 receptor.
Stably transfected cell line: 1321N1-hP2X3 (supplied by Shanghai ChemPartner Chemical Research Co., Ltd.).
(§1) Assay buffer: 1*HBSS+20 mM HEPES;
Cell culture medium: DMEM+10% FBS+75 µg/mL Hygromycin B+300 µg/mL G418;
(§2) Plating medium: DMEM+10% DPBS;
(§3) 0.5*Dye: 10*Dye stock+1.25 Probenecid+1*assay buffer+0.5 U/mL ATP hydrolytic enzyme;
(§4) 2. The cells were cultured to 70%-90% confluency in the cell culture medium at 37° C., 5% CO2. The medium was discarded, and the cells were added with 2 mL of Versene, and the cells were placed in an incubator at 37° C. for 2 to 5 min. The cells were collected by addition of 10 mL of plating medium and counted. The cells were seeded to the 384-well assay plate by addition of 50 μL solution (a density of 1×10^4 cells/well) to each well, and incubated for 16 to 24 hours (at least overnight).
(§5) 3. The medium was discarded, and 30 μL of 1× dye was added. The cells were incubated at 37° C. in the dark for 60 min.
(§6) 4. The compound powder was dissolved in DMSO to obtain a 20 mM stock solution. 180× compound with required concentration was formulated, and diluted in gradient for concentration points.
(§7) 5. Preparation of compound plate: 500 nL of 180× compound was transferred to the compound plate (source plate for FLIPR) using ECHO. 30 μL of assay buffer was added to each well, and the plate was shaken gently for 20 to 40 minutes.
(§8) 6. Determination: 15 μL of 3× compound was taken from each well and added to the cell plate. The samples were added by FLIPR instrument, and the calcium signals were detected. After 15 minutes, 22.5 μL of 3× agonist (EC80 concentration) was added to each well and the calcium signals were detected.
(§9) The calcium signal values were determined by FLIPR. The ratio of the 340/510 nm wavelength signals to 380/510 nm wavelength signals was used as the calculated results for each sampling time point in the experiment. The calculation of maximum minus minimum was derived from the ratio signal curve.
(§10) The percent inhibition rate and ten-point concentration data were fitted to the parametric nonlinear logistic equation by using GraphPad prism to calculate the IC50 values of the compounds.

The target of a further test is T2, 1321N1-hP2X2/3 receptor (Homo sapiens, UniProt P56373+Q9UBL9).
T2 construct: host or cells: 1321N1
T2 sequence (P56373 1-397): T1 sequence (P56373 1-397)
T2 sequence (Q9UBL9 1-471): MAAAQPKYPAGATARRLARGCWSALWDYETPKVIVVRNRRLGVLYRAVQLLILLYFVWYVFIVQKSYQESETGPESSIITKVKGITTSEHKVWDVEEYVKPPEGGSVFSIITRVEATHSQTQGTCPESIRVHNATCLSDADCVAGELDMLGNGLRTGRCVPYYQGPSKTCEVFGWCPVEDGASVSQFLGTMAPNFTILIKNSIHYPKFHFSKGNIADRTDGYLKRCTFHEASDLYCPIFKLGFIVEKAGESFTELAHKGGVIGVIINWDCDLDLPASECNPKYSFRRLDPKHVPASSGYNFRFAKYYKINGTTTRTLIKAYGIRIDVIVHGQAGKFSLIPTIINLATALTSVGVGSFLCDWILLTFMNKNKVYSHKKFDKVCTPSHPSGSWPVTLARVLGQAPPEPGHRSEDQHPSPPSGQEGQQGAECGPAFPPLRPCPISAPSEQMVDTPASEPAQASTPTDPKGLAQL
Description: Calcium ion mobility (FLIPR) in cells stably expressing 1321N1-hP2X2/3 receptors. It counts as cell-based. The conditions noted are these: calcium signal, agonist at EC80. As for the experimental part:
Test Example 2. Determination of the Effect of the Compounds of the Present Invention on Calcium Ion Mobility in Cells Stably Expressing 1321N1-hP2X2/3 Receptors
To determine the inhibitory activity of the compounds on 1321N1-hP2X2/3 receptor.
Stably transfected cell line: 1321N1-hP2X2/3 (supplied by Shanghai ChemPartner Chemical Research Co., Ltd.).
as §1
Cell culture medium: DMEM+10% FBS+75 μg/mL Hygromycin B+150 μg/mL G418;
as §2, §3, §4, §5, §6, §7, §8, §9, §10

With `CC(C)(C)c1cc2n(CC(=O)Nc3ccc(F)cn3)c(=O)c3cccnc3n2n1` [Example 1, 2-(2-(Tert-butyl)-5-oxopyrazolo[1,5-a]pyrido[3,2-e]pyrimidin-4(5H)-yl)-N-(5-fluoropyridin-2-yl)acetamide], the IC50 (commonly the midpoint of a concentration-inhibition curve) turned out to be 16.2 nM on 1321N1-hP2X3 receptor and 64400 nM on 1321N1-hP2X2/3 receptor. As for `Cc1cc(-c2cc3n(CC(=O)Nc4ccc(F)cn4)c(=O)c4cccnc4n3n2)c(C)cn1` [Example 21], at 1321N1-hP2X3 receptor, the IC50 is 305 nM. In the case of `O=C(Cn1c(=O)c2ccc(C(F)(F)F)nc2n2nc(C3CC3)cc12)Nc1ccc(F)cn1` [Example 35, 2-(2-Cyclopropyl-5-oxo-8-(trifluoromethyl)pyrazolo[1,5-a]pyrido[3,2-e]pyrimidin-4(5H)-yl)-N-(5-fluoropyridin-2-yl)acetamide], the IC50 at 1321N1-hP2X3 receptor was 77.7 nM; at 1321N1-hP2X2/3 receptor, greater than 30000 nM. With `CC(C)c1cc2n(CC(=O)Nc3ccc(F)cn3)c(=O)c3ccc(C(F)(F)F)nc3n2n1` [Example 36, N-(5-Fluoropyridin-2-yl)-2-(2-isopropyl-5-oxo-8-(trifluoromethyl)pyrazolo[1,5-a]pyrido[3,2-e]pyrimidin-4(5H)-yl)acetamide], at 1321N1-hP2X3 receptor, the half-inhibitory concentration (IC50) amounted to 185 nM.

With `O=C(Cn1c(=O)c2ccc(C(F)(F)F)nc2n2nc(C3CCCC3)cc12)Nc1ccc(F)cn1` [Example 37, 2-(2-Cyclopentyl-5-oxo-8-(trifluoromethyl)pyrazolo[1,5-a]pyrido[3,2-e]pyrimidin-4(5H)-yl)-N-(5-fluoropyridin-2-yl)acetamide], the IC50 on 1321N1-hP2X3 receptor was determined as 337 nM. As for `Cc1cc(-c2cc3n(CC(=O)Nc4ccc(F)cn4)c(=O)c4ccc(C(F)(F)F)nc4n3n2)c(C)cn1` [Example 40], the results for the half-inhibitory concentration (IC50) on 1321N1-hP2X3 receptor and on 1321N1-hP2X2/3 receptor were 292 nM and 16700 nM, respectively. For `CC1(c2cc3n(CC(=O)Nc4ccc(F)cn4)c(=O)c4ccc(C(F)(F)F)nc4n3n2)CC1` [Example 59, N-(5-Fluoropyridin-2-yl)-2-(2-(1-methylcyclopropyl)-5-oxo-8-(trifluoromethyl)pyrazolo[1,5-a]pyrido[3,2-e]pyrimidin-4(5H)-yl)acetamide], in that order: 259 nM and 32200 nM.

`O=C(Cn1c(=O)c2ccc(C(F)(F)F)nc2n2nc(C3CCCCC3)cc12)Nc1ccc(F)cn1` [Example 62, 2-(2-Cyclohexyl-5-oxo-8-(trifluoromethyl)pyrazolo[1,5-a]pyrido[3,2-e]pyrimidin-4(5H)-yl)-N-(5-fluoropyridin-2-yl)acetamide]: on 1321N1-hP2X3 receptor, the half-inhibitory concentration (IC50) turned out to be 385 nM.

Consider `Cc1cnccc1-c1cc2n(CC(=O)Nc3ccc(F)cn3)c(=O)c3ccc(C(F)(F)F)nc3n2n1` [Example 63, N-(5-Fluoropyridin-2-yl)-2-(2-(3-methylpyridin-4-yl)-5-oxo-8-(trifluoromethyl)pyrazolo[1,5-a]pyrido[3,2-e]pyrimidin-4(5H)-yl)acetamide], for which the IC50 at 1321N1-hP2X3 receptor amounted to 238 nM.

`Cc1ncccc1-c1cc2n(CC(=O)Nc3ccc(F)cn3)c(=O)c3ccc(C(F)(F)F)nc3n2n1` [Example 64, N-(5-Fluoropyridin-2-yl)-2-(2-(2-methylpyridin-3-yl)-5-oxo-8-(trifluoromethyl)pyrazolo[1,5-a]pyrido[3,2-e]pyrimidin-4(5H)-yl)acetamide]: the IC50 at 1321N1-hP2X3 receptor was found to be 149 nM. The same measure, in the same setting: the value for `O=C(Cn1c(=O)c2ccc(C(F)(F)F)nc2n2nc(C(F)(F)F)cc12)Nc1ccc(F)cn1` [Example 66, N-(5-Fluoropyridin-2-yl)-2-(5-oxo-2,8-bis(trifluoromethyl)pyrazolo[1,5-a]pyrido[3,2-e]pyrimidin-4(5H)-yl)acetamide] was 130 nM; that for `O=C(Cn1c(=O)c2ccc(C(F)(F)F)nc2n2nc(C(=O)N3CCC3)cc12)Nc1ccc(F)cn1` [Example 74, 2-(2-(Azetidine-1-carbonyl)-5-oxo-8-(trifluoromethyl)pyrazolo[1,5-a]pyrido[3,2-e]pyrimidin-4(5H)-yl)-N-(5-fluoropyridin-2-yl)acetamide] was 203 nM; that for `O=C(Cn1c(=O)c2ccc(C(F)(F)F)nc2n2nc(Cl)cc12)Nc1ccc(F)cn1` [Example 79, 2-(2-Chloro-5-oxo-8-(trifluoromethyl)pyrazolo[1,5-a]pyrido[3,2-e]pyrimidin-4(5H)-yl)-N-(5-fluoropyridin-2-yl)acetamide] was 34.7 nM.

For `O=C(Cn1c(=O)c2ccc(C(F)(F)F)nc2n2nccc12)Nc1ccc(Cl)cn1` [Example 83, N-(5-Chloropyridin-2-yl)-2-(5-oxo-8-(trifluoromethyl)pyrazolo[1,5-a]pyrido[3,2-e]pyrimidin-4(5H)-yl)acetamide], the half-inhibitory concentration (IC50) on 1321N1-hP2X3 receptor was 137 nM; on 1321N1-hP2X2/3 receptor, greater than 30000 nM.
